Measurements from patent publication US10232020B2, “Incretin-insulin conjugates” (priority 2014, dated 2019).
Starred links: 1 amine or outer side, 2 acyl side, 3 side chain; linkers in the order of their positions; H or OH if unused. Non-standard residues stand in square brackets, D forms with d. Groups on a side chain read outwards from the residue. No end group written: not given here. *: point of attachment. γGlu = O=C(O)[C@H](CCC(=O)[*:2])N[*:1]; Palmitoyl = CCCCCCCCCCCCCCCC(=O)*; Aib = CC(C)(N)C(=O)O

What was measured:
[1] = Rate of dipeptide cleavage from model hexapeptide in PBS
Experimental: The rate of cleavage was determined for the respective propeptides. The concentrations of the propeptides and the model parent peptide were determined by their respective peak areas. […] The slope of this plot provides the rate constant ‘k’.

insulin receptor (IR-B) = target: T1, insulin receptor (IR-B) (Homo sapiens, UniProt P06213); test: In vitro activity at insulin B receptor (IR-B); assay type: cell-based; details: Table 4; read-out: Normalized IR-B EC50 (nM) MEAN
T1 construct: expressed in transfected cells
Experimental: Color development was stopped 5 min later by adding 0.05 ml 1 N HCl. Absorbance at 450 nm was measured on Titertek Multiscan MCC340 (ThermoFisher, Pittsburgh, Pa.). […] Structures associated with the abbreviated lipidated groups designated in Table 4 are as follows: […]

GLP-1 receptor = target: T2, GLP-1 receptor (Homo sapiens, UniProt P43220); test: cAMP synthesis luciferase reporter assay in HEK293 cells, GLP-1 receptor; assay type: cell-based; details: for EC50: read-out: Normalized GLP-1 EC50 (nM) MEAN, Table 4
T2 construct: expressed in transfected cells; host or cells: HEK293
Source text: (§1) Structures associated with the abbreviated lipidated groups designated in Table 4 are as follows: […]

diabetic mice [2] = test: Blood glucose, food intake and body weight in diabetic mice; assay type: in vivo; details: for blood glucose levels and duration of action: FIG. 15B; for body weight: FIG. 17D
Experimental: Six- to eight-week-old male C57BL/6 mice were maintained at 23° C., constant humidity, and a 12-h light-dark cycle. The acute in vivo effects of select peptides were evaluated by subcutaneously injecting peptides solubilized in physiologically buffered saline or a vehicle control to normal or diabetic mice. Blood glucose was measured at various time points through the course of a 24 hr period following administration of the peptides. Each group of mice contained 8 animals per group. The average body weight was ˜25 g. Mice were made diabetic by administration of streptozotocin.
Repeat daily subcutaneous administration of the peptides or vehicle control was administered to the mice for periods of five days to two weeks. The obese mice were given a diabetogenic diet Mice had free access to water and were fed ad libitum with a high fat diet (HFD) comprising 58% of calories from fat (D12331; Research Diets, New Brunswick, N.J.) and each group of mice contained 8 animals per group. The average body weight was ˜50 g and the mice were ˜6 months old males. Body weight and food intake were measured on the days that peptide or vehicle control was administered to the mice. Fasting blood glucose levels were measured repeatedly.

diabetic mice [3] = test: as above; assay type: in vivo; details: four days; for weight loss: daily or twice a day, FIG. 14B
GIP receptor [4] = target: T3, GIP receptor (Homo sapiens, UniProt P48546); test: cAMP synthesis luciferase reporter assay in HEK293 cells, GIP receptor; assay type: cell-based; details: read-out: Normalized GIP EC50 (nM) MEAN; Table 4
T3 construct: expressed in transfected cells; host or cells: HEK293
T3 sequence (P48546 22-466): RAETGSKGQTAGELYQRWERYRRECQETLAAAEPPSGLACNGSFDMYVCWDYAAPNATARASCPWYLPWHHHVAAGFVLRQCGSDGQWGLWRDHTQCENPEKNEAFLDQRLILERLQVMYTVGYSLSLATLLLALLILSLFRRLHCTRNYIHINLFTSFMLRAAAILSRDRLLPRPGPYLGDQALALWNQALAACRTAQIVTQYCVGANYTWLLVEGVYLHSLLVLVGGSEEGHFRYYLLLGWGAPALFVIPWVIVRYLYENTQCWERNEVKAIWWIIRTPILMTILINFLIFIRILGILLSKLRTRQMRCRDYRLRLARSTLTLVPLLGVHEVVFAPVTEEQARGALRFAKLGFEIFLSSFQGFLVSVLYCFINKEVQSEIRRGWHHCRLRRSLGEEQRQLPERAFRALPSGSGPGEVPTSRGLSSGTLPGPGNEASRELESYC
Source text: as §1

[5] = particularly at physiological pH; cited from earlier work
GIP receptor [6] = target: T3, GIP receptor; details: general statement; cited from earlier work

T2 sequence (P43220 24-463, species assumed): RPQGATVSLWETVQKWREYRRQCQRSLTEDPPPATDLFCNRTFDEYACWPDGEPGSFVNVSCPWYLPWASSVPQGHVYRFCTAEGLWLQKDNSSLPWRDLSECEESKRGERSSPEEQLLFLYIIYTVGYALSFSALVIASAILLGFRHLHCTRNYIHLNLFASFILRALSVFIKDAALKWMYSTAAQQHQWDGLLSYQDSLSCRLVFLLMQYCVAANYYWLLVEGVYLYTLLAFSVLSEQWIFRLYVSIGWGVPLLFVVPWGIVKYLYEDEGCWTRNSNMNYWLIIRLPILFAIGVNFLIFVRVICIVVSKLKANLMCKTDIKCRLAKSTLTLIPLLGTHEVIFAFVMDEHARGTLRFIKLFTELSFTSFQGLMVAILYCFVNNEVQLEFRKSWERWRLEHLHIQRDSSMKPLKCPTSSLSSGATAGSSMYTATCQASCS

With C[C@@H](O)[C@H](NC(=O)CNC(=O)[C@H](CCCNC(=N)N)NC(=O)[C@H](CO)NC(=O)[C@H](Cc1c[nH]cn1)NC(=O)[C@@H](N)Cc1ccc(NC(=O)CNC(=O)CN)cc1)C(=O)N[C@@H](Cc1ccccc1)C(N)=O the t1/2 ([1]; Table 2, result in words, PBS) was “No cleavage”.

With C[C@@H](O)[C@H](NC(=O)CNC(=O)[C@H](CCCNC(=N)N)NC(=O)[C@H](CO)NC(=O)[C@H](Cc1c[nH]cn1)NC(=O)[C@@H](N)Cc1ccc(NC(=O)CNC(=O)CO)cc1)C(=O)N[C@@H](Cc1ccccc1)C(N)=O the t1/2 ([1]; Table 2, result in words, PBS) was “No cleavage”.

For CC(C)=C(N)C(=O)N1CCC[C@H]1C(=O)N[C@@H](Cc1c[nH]cn1)C(=O)N[C@@H](CO)C(=O)N[C@@H](CCCNC(=N)N)C(=O)NCC(=O)N[C@H](C(=O)N[C@@H](Cc1ccccc1)C(N)=O)[C@@H](C)O, the t1/2 ([1]; buffer) was “No cleavage”.

For C[C@@H](O)[C@H](NC(=O)CNC(=O)[C@H](CCCNC(=N)N)NC(=O)[C@H](CO)NC(=O)[C@H](Cc1c[nH]cn1)NC(=O)[C@@H]1CCCN1C(=O)[C@@H](O)Cc1ccccc1)C(=O)N[C@@H](Cc1ccccc1)C(N)=O, the t1/2 ([1]; buffer) was “No cleavage”.

With C[C@@H](O)[C@H](NC(=O)CNC(=O)[C@H](CCCNC(=N)N)NC(=O)[C@H](CO)NC(=O)[C@H](Cc1c[nH]cn1)NC(=O)[C@@H]1CCCN1C(=O)CO)C(=O)N[C@@H](Cc1ccccc1)C(N)=O the t1/2 ([1]; buffer) was “No cleavage”.

For C[C@@H](O)[C@H](NC(=O)CNC(=O)[C@H](CCCNC(=N)N)NC(=O)[C@H](CO)NC(=O)[C@H](Cc1c[nH]cn1)NC(=O)[C@@H]1CCCN1C(=O)[C@@H]1CCCN1)C(=O)N[C@@H](Cc1ccccc1)C(N)=O [Table 3 no. 8: P, P, H-SRGTF-NH2], the t1/2 ([1]; buffer) was “No cleavage”.

With C[C@@H](O)[C@H](NC(=O)CNC(=O)[C@H](CCCNC(=N)N)NC(=O)[C@H](CO)NC(=O)[C@H](Cc1c[nH]cn1)NC(=O)[C@H]1CCCN1C(=O)[C@@H]1CCCN1)C(=O)N[C@@H](Cc1ccccc1)C(N)=O [Table 3 no. 12: P, d-P, H-SRGTF-NH2] the t1/2 ([1]; buffer) was “No cleavage”.

For C[C@@H](O)[C@H](NC(=O)CNC(=O)[C@H](CCCNC(=N)N)NC(=O)[C@H](CO)NC(=O)[C@H](Cc1c[nH]cn1)NC(=O)[C@@H]1CCCN1C(=O)[C@H]1CCCN1)C(=O)N[C@@H](Cc1ccccc1)C(N)=O [Table 3 no. 13: d-P, P, H-SRGTF-NH2], the t1/2 ([1]; buffer) was “No cleavage”.

For CNC(C)(C)C(=O)N1CCC[C@H]1C(=O)N[C@@H](Cc1c[nH]cn1)C(=O)N[C@@H](CO)C(=O)N[C@@H](CCCNC(=N)N)C(=O)NCC(=O)N[C@H](C(=O)N[C@@H](Cc1ccccc1)C(N)=O)[C@@H](C)O [Table 3 no. 19: N—Me-Aib, P, H-SRGTF-NH2], the half-life ([1]; buffer) was > 20.8 days.

With “APHSRGTF-NH2 [Table 3 no. 5: A, P, H-SRGTF-NH2]” the t1/2 ([1]; buffer) was “No cleavage”.

Work on “CIU-004: XEGTFTSDVSSYLEEQAAKEFIAWLVKGGPSSGAPPPS (SEQ ID NO: 1945); C(S-S)—CH2CH2CH2-B^1 Insulin (conjugate chemistry not built)” yielded an EC50 (insulin receptor (IR-B)) of 0.59 nM and an EC50 (GLP-1 receptor) of 7.96 nM.

In the case of “CIU-012: HXEGTFTSDUSSYLEEQAAKEFIAWLVKGGPSSGAPPPSG (SEQ ID NO: 1953); C(S-S)—CH2CH2CH2-B^1 Insulin”, the “blood glucose levels and duration of action” value (diabetic mice [2]) is reported as “demonstrate activity in reducing blood glucose levels and demonstrate an extended duration of action relative to native insulin”.

In the case of “CIU-013: HXEGTFTSDVSSYLEEQAAKEFIAWLVKGGPSSGAPPPSGU (SEQ ID NO: 1954); C(S-S)—CH2CH2CH2-B^1 Insulin”, the lowering blood glucose (diabetic mice [2]; 5, 15 or 20 nmoles/kg, FIG. 11B) is reported as “all doses of the compound are effective in lowering blood glucose”, the food intake (diabetic mice [2]; FIG. 13) is reported as “suppressing food intake” and the “blood glucose levels and duration of action” value (diabetic mice [2]) is reported as “demonstrate activity in reducing blood glucose levels and demonstrate an extended duration of action relative to native insulin”. The blood glucose (diabetic mice [2]; daily or 2× a day, one fifth the dosage of the pegylated insulin, FIG. 14D) was “would appear to not be as effective as insulin”, the “24 hour blood glucose” value (diabetic mice [2]; second administration at 6 hours, 10 nmole/kg(×2), FIG. 12B) was “about 100 mg/dL” and the food intake (diabetic mice [3]; FIG. 14C) was “suppresses food intake relative to the administration of the pegylated insulin analog”. The weight loss (diabetic mice [3]) was “produced significant weight loss”.

For “CIU-021: HXEGTFTSDUSSYLEEQAAKEFIAWLVKGGPSSGAPPPSG (SEQ ID NO: 1958); Pen(S-S)—CH2CH2CH2-B^1 Insulin”, the “blood glucose levels and duration of action” value (diabetic mice [2]) was “demonstrate activity in reducing blood glucose levels and demonstrate an extended duration of action relative to native insulin”.

In the case of “CIU-26: pegylated native insulin (20 K PEG linked to the B29 side chain) [reference compound]”, the food intake (diabetic mice [2]; FIG. 13) is reported as “does not”, the food intake (diabetic mice [2]; FIG. 16C) is reported as “did not” and the food intake (diabetic mice [2]; seven days, FIG. 17C) is reported as “does not”. For the same molecule, the body weight (diabetic mice [2]; seven days) was “not” and the weight loss (diabetic mice [3]) was “failed to induce weight loss”.

With “CIU-037: HXEGTFTSDVSSYLEEQAAREFIAWLVRGGPSSGAPPPSK(20K PEG) (SEQ ID NO: 1966); C(S-S)—CH2CH2CH2-B^1 Insulin” the blood glucose levels (diabetic mice [2]; 1, 2.5 or 5 nmol/kg, seven days, FIG. 17B) was “improved blood glucose levels achieved relative to pegylated insulin”, the blood glucose levels (diabetic mice [2]; 5, 10 or 20 nmol/kg, FIG. 16B) was “blood glucose levels inversely proportional to the dose administered” and the “fat mass and lean mass” value (diabetic mice [2]; FIG. 17E) was “comes from fat mass and not lean mass”. The food intake (diabetic mice [2]; seven days, FIG. 17C) was “suppress food intake” and the body weight (diabetic mice [2]; seven days) was “induces loss in body weight”.

For “CIU-055: HXEGTFTSDVSSYLEEQAAREFIAWLVRGGPSSGAPPPSK(20K PEG) (SEQ ID NO: 1974); C(S-S)—CH2CH2CH2-B^1 DesDi”, the EC50 (insulin receptor (IR-B)) was 1140 nM.

Work on “CIU-123: HXEGTFTSDUSIYLDKQAAXEFVNWLLAGGPSSGAPPPS (SEQ ID NO: 2013); C(S-S)—CH2CH2CH2-B^1Desdi (H[Aib]EGTFTSDK([γGlu-Palmitoyl])SIYLDKQAA[Aib]EFVNWLLAGGPSSGAPPPS; also: disulfide-linked propyl to B1 of desdi insulin, site not given here)” yielded an EC50 (GLP-1 receptor) of 0.0032 nM and an EC50 (GIP receptor [4]) of 0.0036 nM.

“CIU-146: YXEGTFTSDU2SIYLDKQAAXEFVNWLLAGGPSSGAPPPS (SEQ ID NO: 2014); C(S-S)—CH2CH2CH2-B^1Desdi (Y[Aib]EGTFTSDKSIYLDKQAA[Aib]EFVNWLLAGGPSSGAPPPS; not fully specified (residue 10, C-terminus); also: disulfide-linked propyl to B1 of desdi insulin, site not given here)” gave an EC50 (GIP receptor [4]) of 0.0014 nM.

In the case of “CPHSRGTF-NH2 [Table 3 no. 6: C, P, H-SRGTF-NH2]”, the t1/2 ([1]; buffer) is reported as “No cleavage”.

With “EPHSRGTF-NH2 [Table 3 no. 10: E, P, H-SRGTF-NH2]” the t1/2 ([1]; buffer) was “No cleavage”.

For “FPHSRGTF-NH2 [Table 3 no. 1: F, P, H-SRGTF-NH2]”, the t1/2 ([1]; buffer) was “No cleavage”.

For “GPHSRGTF-NH2 [Table 3 no. 3: G, P, H-SRGTF-NH2]”, the t1/2 ([1]; buffer) was “No cleavage”.

For “KPHSRGTF-NH2 [Table 3 no. 9: K, P, H-SRGTF-NH2]”, the t1/2 ([1]; Table 3, words or unit not given, PBS) was “No cleavage”.

For “Native glucagon: peptide consisting of the sequence of SEQ ID NO: 701”, the “solubility in aqueous solution” value [5] is given as “poor solubility in aqueous solution” and the “activation of the GIP receptor” value (GIP receptor [6]) is given as “does not activate the GIP receptor”.

For “SEQ ID NO: 128: glucagon analog substituting the native glutamine at position 3 with glutamic acid”, the “selectivity for the GLP-1 receptor” value (GLP-1 receptor; versus glucagon receptor) was “tenfold”.

In the case of “SPHSRGTF-NH2 [Table 3 no. 7: S, P, H-SRGTF-NH2]”, the t1/2 ([1]; buffer) is reported as “No cleavage”.
